According to patent US20250186436A1 (4E Therapeutics, Inc., priority 2021, published 2025):
Where “and” joins values, the source holds several entries; their conditions need not be identical. Equal values may be shown once. Read-outs that look alike come from different tables or passages of the source.

What was measured:
[1] = Plasma and brain concentrations, brain:plasma ratio in rats 2 hr after single PO 1 mg/kg (Example 5); assay type: in vivo; settings: for concentration at 2 hr: po
Procedure: (§1) Table 15 provides plasma and brain concentrations at 2 hr after a single P0 dose of 1 mg/kg.

[2] = target: T1, recombinant full-length human kinase MNK1 (Homo sapiens, UniProt Q9BUB5); experiment: MNK1 radiometric kinase activity assay; assay type: biochemical; settings: radiometric activity assay; read-out: MNK1
T1 construct: the recombinant full-length human kinase MNK1; made in house; host or cells: insect cells

[3] = PK study in male Sprague-Dawley rats, IV 0.5 mg/kg and PO 1 mg/kg in 10% DMA/PG (Example 5); assay type: in vivo; settings: for MRT inf: MRTinf
Procedure: Example 5: PK study of 4ET-03-053 in male Sprague-Dawley rats with IV (0.5 mg kg; 10% DMI 15% EtOH 35% PG 40% NS) and PO (1 mg kg; 10% DMA PG) dosing
In male Sprague-Dawley rats, following IV administration with 0.5 mg/kg 4ET-03-053, plasma concentrations declined in a multiphasic manner with an initial concentration (Co) of 1.24 ug/mL and a last measurable concentration (Clast) of 33.2 ng/mL at 24 h post dose.
as §1

paclitaxel CIPN mice = experiment: Conditioned Place Preference (CPP) test with chemotherapy induced peripheral neuropathy (CIPN) mice; assay type: in vivo
Procedure: Mice were treated over a period of 8 days with 4 injections of paclitaxel, made in ethanol and kollipher vehicle, each at 4 mg/kg for a cumulative dose of 16 mg/kg. […] 4ET-03-053 was given with pairing with the white chamber in the CPP box with the idea that pain relief in the white chamber will counteract the natural aversion mice have to areas with bright light.

[4] = Plasma and brain concentrations, brain:plasma ratio 24 hr after last of five daily 1 mg/kg PO doses (Example 6); assay type: in vivo, rats; settings: for concentration at 24 h / Kp at 24 h: rat; for concentration at 24 h: oral, 1 mg/kg
From the text: Table 18 provides plasma and brain concentrations of 4ET-03-0053 at 24 hr after the last dose of five daily P0 doses.

[5] = PK study in male Sprague-Dawley rats dosed once per day for five days, PO 25 mg/kg, 0.5% HPMC (Example 8); assay type: in vivo; settings: 0.5% HPMC suspension
Procedure: Example 8. PK study of 4ET-03-053 in male Sprague-Dawley rats dosed once per day for five days (P0; 25 mg/kg; 0.5HPMC aqueous suspension)
Table 24 provides plasma and brain concentrations at 24 hr after the last dose of five daily PO doses of 4ET-03-053.

[6] = male Sprague-Dawley rats, IV 0.5 mg/kg, 10% DMI:15% EtOH:35% PG:40% NS, individual animals, 0.5 mg/kg
[7] = male, Sprague-Dawley, rat, in vivo, iv, 0.5 mg/kg
[8] = male, Sprague-Dawley, rat, in vivo, po, 1 mg/kg
[9] = day five of daily PO 25 mg/kg, individual animals, 25 mg/kg

T1 sequence (Q9BUB5 whole entry): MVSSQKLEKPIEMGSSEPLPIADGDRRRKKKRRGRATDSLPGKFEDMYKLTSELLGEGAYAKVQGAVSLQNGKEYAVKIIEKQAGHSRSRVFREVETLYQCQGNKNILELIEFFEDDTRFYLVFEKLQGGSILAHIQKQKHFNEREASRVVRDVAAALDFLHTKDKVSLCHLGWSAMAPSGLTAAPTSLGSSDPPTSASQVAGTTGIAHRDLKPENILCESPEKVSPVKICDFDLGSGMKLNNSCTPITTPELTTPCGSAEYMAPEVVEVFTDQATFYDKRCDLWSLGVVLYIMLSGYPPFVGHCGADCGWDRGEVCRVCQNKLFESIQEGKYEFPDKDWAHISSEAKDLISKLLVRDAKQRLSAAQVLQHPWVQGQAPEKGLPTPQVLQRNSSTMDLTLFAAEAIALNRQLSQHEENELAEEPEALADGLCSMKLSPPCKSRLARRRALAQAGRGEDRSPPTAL

## Cc1cc(Nc2cc(N)ncn2)c(=O)n2c1C(=O)NC21CCC2(CC2)CC1 [4ET-03-053, 6″-((6-Aminopyrimidin-4-yl)amino)-8″-methyl-2″H-dispiro[cyclopropane-1,1′-cyclohexane-4′,3″-imidazo[1,5-a]pyridine]-1″,5″-dione]
[1]; male, Sprague-Dawley, rat, brain homogenate, 1 mg/kg, rats, brain homogenate, 2 hr after single PO 1 mg/kg, individual animals (n = 3), read-out: Tissue Homogenate Conc.
  concentration at 2 hr: 9.82 ng/mL
[1]; male, Sprague-Dawley, rat, brain homogenate, 1 mg/kg, rats, brain homogenate, 2 hr after single PO 1 mg/kg, mean, read-out: Tissue Homogenate Conc., Mean
  concentration at 2 hr: 11.8 ng/mL
[1]; male, Sprague-Dawley, rat, brain, 1 mg/kg, rats, brain, 2 hr after single PO 1 mg/kg, read-out: Mean Tissue
  concentration at 2 hr: 47.2 ng/g
[1]; male, Sprague-Dawley, rat, plasma, 1 mg/kg, rats, plasma, 2 hr after single PO 1 mg/kg, individual animals (n = 3), read-out: Plasma Conc.
  concentration at 2 hr: 506 ng/mL
[1]; male, Sprague-Dawley, rat, plasma, 1 mg/kg, rats, plasma, 2 hr after single PO 1 mg/kg, mean, read-out: Plasma Conc., Mean
  concentration at 2 hr: 566 ng/mL
[1]; male, Sprague-Dawley, rat, rats, brain to plasma, 2 hr after single PO 1 mg/kg, read-out: Mean Tissue/Plasma Conc. Ratio
  Kp at 2 hr: 0.083
[1]; rat, brain, Sprague-Dawley rats, 2 hr after a single PO dose of 1 mg/kg
  Kp at 2 h: 0.083
[1]; rats, brain homogenate, 2 hr after single PO 1 mg/kg, individual animals (n = 3), 1 mg/kg
  Tissue Homogenate Conc.: 11.4 ng/mL and 14.2 ng/mL
[1]; rats, plasma, 2 hr after single PO 1 mg/kg, individual animals (n = 3), 1 mg/kg
  Plasma Conc.: 539 ng/mL and 652 ng/mL
[2]
  IC50: 215 nM
[3]; [6]
  AUClast: 4654 ng·h/mL and 3767 ng·h/mL
  Clast: 36.7 ng/mL and 29.7 ng/mL
[3]; [7]
  C0: 1240 ng/mL
  MRT inf: 7.69 h
[3]; male, Sprague-Dawley, rat, in vivo, iv, 0.5 mg/kg, AUCinf
  AUC(0-inf): 4080 ng·h/mL
[3]; male, Sprague-Dawley, rat, in vivo, iv, 0.5 mg/kg, CLp
  clearance: 2.04 mL/min/kg
[3]; male, Sprague-Dawley, rat, in vivo, iv, 0.5 mg/kg, Vss
  Vd: 0.942 L/kg
[3]; male, Sprague-Dawley, rat, in vivo, iv, 0.5 mg/kg, male Sprague-Dawley rats, 0.5 mg/kg IV, at 24 h, read-out: last measurable concentration (Clast)
  concentration at 24 h: 33.2 ng/mL
[3]; male, Sprague-Dawley, rat, in vivo, iv, 0.5 mg/kg, male Sprague-Dawley rats, IV 0.5 mg/kg, 10% DMI:15% EtOH:35% PG:40% NS, individual animals, read-out: AUClast
  AUC(0-t): 4030 ng·h/mL
[3]; male, Sprague-Dawley, rat, in vivo, iv, 0.5 mg/kg, male Sprague-Dawley rats, IV 0.5 mg/kg, 10% DMI:15% EtOH:35% PG:40% NS, individual animals, read-out: Clast
  concentration at 24 h: 33.1 ng/mL
[3]; male, Sprague-Dawley, rat, in vivo, iv, 0.5 mg/kg, male Sprague-Dawley rats, IV 0.5 mg/kg, 10% DMI:15% EtOH:35% PG:40% NS, mean (n = 3), read-out: AUClast
  AUC(0-t): 4150 ng·h/mL
[3]; male, Sprague-Dawley, rat, in vivo, iv, 0.5 mg/kg, male Sprague-Dawley rats, IV 0.5 mg/kg, 10% DMI:15% EtOH:35% PG:40% NS, mean (n = 3), read-out: Clast
  concentration at 24 h: 33.2 ng/mL
[3]; male, Sprague-Dawley, rat, in vivo, iv, 0.5 mg/kg, steady-state volume of distribution (Vss)
  Vd: 0.87 L/kg
[3]; male, Sprague-Dawley, rat, in vivo, iv, 0.5 mg/kg, systemic clearance (CLp)
  clearance: 1.87 mL/min/kg
[3]; male, Sprague-Dawley, rat, in vivo, iv, 0.5 mg/kg, t1/2
  half-life: 7.26 h
[3]; male, Sprague-Dawley, rat, in vivo, iv, 0.5 mg/kg, terminal half-life (t1/2)
  half-life: 7.33 h
[3]; male, Sprague-Dawley, rat, in vivo, iv, 0.5 mg/kg, total systemic exposure (AUCinf)
  AUC(0-inf): 4500 ng·h/mL
[3]; [8]
  Tmax: 0.5 h
  bioavailability: 76.7%
  time to peak plasma concentration: ≤ 30 min
  MRT inf: 10.6 h
[3]; male, Sprague-Dawley, rat, in vivo, po, 1 mg/kg, AUCinf
  AUC(0-inf): 7020 ng·h/mL
[3]; male, Sprague-Dawley, rat, in vivo, po, 1 mg/kg, AUClast
  AUC(0-t): 6110 ng·h/mL
[3]; male, Sprague-Dawley, rat, in vivo, po, 1 mg/kg, Clast
  concentration at 24 hr: 74.6 ng/mL
[3]; male, Sprague-Dawley, rat, in vivo, po, 1 mg/kg, Cmax
  Cmax: 683 ng/mL
[3]; male, Sprague-Dawley, rat, in vivo, po, 1 mg/kg, last measurable concentration
  concentration at 24 hr: 74.6 ng/mL
[3]; male, Sprague-Dawley, rat, in vivo, po, 1 mg/kg, peak plasma concentration (Cmax)
  Cmax: 683 ng/mL
[3]; male, Sprague-Dawley, rat, in vivo, po, 1 mg/kg, t1/2
  half-life: 9.23 h
[3]; male, Sprague-Dawley, rat, in vivo, po, 1 mg/kg, terminal half-life (t1/2)
  half-life: 9.23 h
[3]; male, Sprague-Dawley, rat, in vivo, po, 1 mg/kg, total systemic exposure (AUCinf)
  AUC(0-inf): 6900 ng·h/mL
Paclitaxel CIPN mice; CIPN mice (paclitaxel), 10 mg/kg
  CPP: time in white (drug-paired) chamber: spent more time in the white chamber vs. dark chambers
Paclitaxel CIPN mice; mice that did not have CIPN
  CPP: effect in mice without CIPN (reward): no effect
[4]; male, Sprague-Dawley, brain homogenate, rats, brain homogenate, 24 hr after the last 1 mg/kg PO dose on day 5, individual animals (n = 3), read-out: Tissue Homogenate Conc.
  concentration at 24 h: 7.22 ng/mL
[4]; male, Sprague-Dawley, brain homogenate, rats, brain homogenate, 24 hr after the last 1 mg/kg PO dose on day 5, mean, read-out: Tissue Homogenate Conc., Mean
  concentration at 24 h: 6.02 ng/mL
[4]; male, Sprague-Dawley, brain, rats, brain, 24 hr after the last 1 mg/kg PO dose on day 5, read-out: Mean Tissue
  concentration at 24 h: 24.1 ng/g
[4]; male, Sprague-Dawley, plasma, rats, plasma, 24 hr after the last 1 mg/kg PO dose on day 5, individual animals (n = 3), read-out: Plasma Conc.
  concentration at 24 h: 318 ng/mL
[4]; male, Sprague-Dawley, plasma, rats, plasma, 24 hr after the last 1 mg/kg PO dose on day 5, mean, read-out: Plasma Conc., Mean
  concentration at 24 h: 278 ng/mL
[4]; male, Sprague-Dawley, rats, brain to plasma, 24 hr after the last 1 mg/kg PO dose on day 5, read-out: Mean Tissue/Plasma Conc. Ratio
  Kp at 24 h: 0.086
[4]; brain, Sprague-Dawley rats, 24 hr after the last dose of five daily PO doses of 1 mg/kg, read-out: brain:plasma ratio
  Kp at 24 h: 0.086
[4]; rats, brain homogenate, 24 hr after the last 1 mg/kg PO dose on day 5, individual animals (n = 3)
  Tissue Homogenate Conc.: 5.79 ng/mL and 5.04 ng/mL
[4]; rats, plasma, 24 hr after the last 1 mg/kg PO dose on day 5, individual animals (n = 3)
  Plasma Conc.: 291 ng/mL and 226 ng/mL
[5]; after the last of five daily 25 mg/kg PO doses
  time to peak plasma concentration: ≤ 1 h
[5]; [9]
  AUCinf: 489224 ng·h/mL and 471587 ng·h/mL
  AUCinf/D: 16316 kg·h/kL and 19569 kg·h/kL and 18863 kg·h/kL
